From EP2627439B1, “METHOD FOR SOLUBILIZING CARBOXYLIC ACID-CONTAINING COMPOUND IN HYDROCARBON SOLVENT” (Dow Global Technologies LLC, priority 2011, dated 2013)

Experiment: Solubility measurement of acid chlorides containing one carboxylic acid moiety in hydrocarbon solvents (saturated solutions, proton NMR)
Type: physicochemical
Settings: saturated solution, 20°C and 101 kPa
Procedure: Solubility measurement of acid chlorides containing one carboxylic acid moiety in hydrocarbon solvents with and without solubility enhancing additives: • Saturated solutions of sample acid chlorides containing carboxylic acid moieties were prepared in hydrocarbon solvents with and without the presence of trialkylphosphate additives by adding more sample than will dissolve in the solvent and decanting the saturated solvent from the undissolved precipitate. The saturated solutions were evaluated by proton NMR. Deuterated Isopar L is not commercially available, thus all spectra were acquired in the unlocked condition using regular Isopar L. Because of the very high proton concentration in running a non-deuterated solvent, 60° pulse and minimum receiver gain were used to avoid receiver overflow. A relaxation delay of 8 seconds was used for complete signal recovery between scans. The spectral width was set to 20 ppm and the center of the spectrum was set to 5 ppm. Depending on the concentrations of the species of interest, 64-256 scans were used for signal averaging.
The area of the Isopar L peaks between 0.75 and 2.0 ppm were measure and divided by 26 (which represents the average H's present in Isopar L, assuming a molecular formula of C12H26) and multiplied by 170.33, the formula weight of C12H26. The peak area of the aromatic acid chlorides containing carboxylates are between 8.9 - 9.2 ppm and are well resolved from the Isopar solvent. The integration of one of the assigned peaks (for example, the triplet of mono-hydrolyzed TMC at 9.0 ppm represents a single proton) was used to determine the relative weight of the sample in the Isopar L solvent. The integration is divided by the number of protons it represents and multiplied by the formula weight of the compound it represents (for example, the triplet of mono-hydrolyzed TMC at 9.0 ppm would be divided by 1 and multiplied by 247.03 g/mol). The wt% of mono-hydrolyzed TMC in the saturated solution is determined by dividing the value obtained for mono-hydrolyzed TMC by the value obtained for Isopar L.
In the presence of tributylphosphate (TBP), the Isopar L value must be corrected since a few protons of TBP cannot be resolved from the Isopar L peaks. This is done by integrating the -OCH2-protons of TBP which are well resolved at ∼4.05 ppm, dividing this value by 6 (for 6 protons). This area value is then multiplied by 21 (represents the three -CH2CH2CH3 that are unresolved from the Isopar L peak) and subtracted from the peak area of Isopar L. Table 2: […]

SMILES	Solubility (wt%) (Solvent: 80/20 Isopar L / Toluene, no additive)	Solubility (wt%) (Solvent: 80/20 Isopar L/Toluene + 0.25 wt% TBP)	Solubility (wt%) (Solvent: Isopar L + 1 wt% TEHP)	Solubility (wt%) (Solvent: Isopar L + 1 wt% TEP)	Solubility (wt%) (Solvent: Isopar L, no additive)	Solubility (wt%) (Solvent: Isopar L + 0.47 wt% TBP)
O=C(O)c1cc(C(=O)Cl)cc(C(=O)Cl)c1 [mhTMC, mono-hydrolyzed trimesoyl chloride]	0.05 wt%	0.29 wt%	0.11 wt%	0.2 wt%	0.02 wt%	–
O=C(O)c1cccc(C(=O)Cl)c1 [mhIPC]	–	–	–	–	<0.02 wt%	0.29 wt%
